Measured values reported in the NIST ThermoML archive (doi:10.1021/je101144k).
Numbers after ± are expanded uncertainties.

Assay: wn = mass fraction of the nth substance listed
Conditions: for surface tension liquid-gas: Maximal bubble pressure; for mass density / viscosity: 101 kPa, Liquid; for mass density: Pycnometric method

N[C@@H](CO)C(=O)[O-].[K+] [potassium L-serinate] + O
Conditions	mass density [kg/m3]	surface tension liquid-gas [mN/m]	viscosity [mPa·s]
298.15 K, w1 = 0.072	1034.7 ± 0.9	73.2 ± 0.6	1.121 ± 0.034
298.15 K, w1 = 0.143	1068.7 ± 1.1	74.1 ± 0.6	1.372 ± 0.039
298.15 K, w1 = 0.286	1137 ± 1.6	77.9 ± 0.7	1.913 ± 0.052
298.15 K, w1 = 0.43	1201.2 ± 2.2	80.4 ± 0.8	2.757 ± 0.077
298.15 K, w1 = 0.573	1263.5 ± 2.8	82.2 ± 0.8	4.202 ± 0.12
303.15 K, w1 = 0.072	1033.1 ± 0.9	–	1.032 ± 0.032
303.15 K, w1 = 0.143	1066.7 ± 1.1	–	1.261 ± 0.037
303.15 K, w1 = 0.286	1134.4 ± 1.7	–	1.736 ± 0.048
303.15 K, w1 = 0.43	1198.8 ± 2.2	–	2.485 ± 0.069
303.15 K, w1 = 0.573	1260.5 ± 2.8	–	3.685 ± 0.1
313.15 K, w1 = 0.072	1028.8 ± 0.9	–	0.87 ± 0.029
313.15 K, w1 = 0.143	1061.9 ± 1.1	–	1.043 ± 0.032
313.15 K, w1 = 0.286	1129.1 ± 1.6	–	1.402 ± 0.041
313.15 K, w1 = 0.43	1193.1 ± 2.2	–	1.996 ± 0.057
313.15 K, w1 = 0.573	1254.4 ± 2.8	–	2.927 ± 0.084
323.15 K, w1 = 0.072	1024.6 ± 0.9	–	0.73 ± 0.026
323.15 K, w1 = 0.143	1056.9 ± 1.1	–	0.896 ± 0.029
323.15 K, w1 = 0.286	1123.8 ± 1.6	–	1.14 ± 0.035
323.15 K, w1 = 0.43	1187.5 ± 2.2	–	1.767 ± 0.052
323.15 K, w1 = 0.573	1248.5 ± 2.8	–	2.556 ± 0.073
333.15 K, w1 = 0.072	1019.1 ± 0.9	–	0.645 ± 0.024
333.15 K, w1 = 0.143	1051.5 ± 1.1	–	0.806 ± 0.028
333.15 K, w1 = 0.286	1118 ± 1.6	–	0.989 ± 0.032
333.15 K, w1 = 0.43	1181.6 ± 2.2	–	1.56 ± 0.047
333.15 K, w1 = 0.573	1242.3 ± 2.8	–	2.278 ± 0.066
343.15 K, w1 = 0.072	1013.9 ± 1	–	0.564 ± 0.023
343.15 K, w1 = 0.143	1046.3 ± 1.1	–	0.671 ± 0.025
343.15 K, w1 = 0.286	1112.5 ± 1.6	–	0.855 ± 0.029
343.15 K, w1 = 0.43	1175.9 ± 2.2	–	1.423 ± 0.044
343.15 K, w1 = 0.573	1236.3 ± 2.7	–	2.063 ± 0.06
